According to patent publication US10092574B2, “Inhibitors of polynucleotide repeat-associated RNA foci and uses thereof” (VALORISATION-RECHERCHE, LIMITED PARTNERSHIP, priority 2013, dated 2018):

Assays:
Type in all cases: cell-based, human
MBNL1 mRNA exon 7 = assay: RT-PCR alternative splicing assay, MBNL1 exon 7; conditions: DM1 myoblasts, 5 to 60 μM, 7 days (FIG. 12B)
SERCA1 exon 22 = assay: RT-PCR alternative splicing assay, SERCA1 exon 22; conditions: DM1 myoblasts, 20 μM, 7 days; WT 59%, DM1 less than 2% (FIG. 8B)
Experimental: (§1) Human myoblasts were obtained from the Myosix institute associated with the Association Frangaise contre les Myopathies (AFM). Five primary myoblast lines were obtained as controls, and one line from a DM1 patient with a 3.8 Kb CTG triplet amplification corresponding to approximately 1250 CTG repeats. The human myoblasts are cultivated in HAM-F10 media (SIGMA N6635) with 15% FBS, 1% chick embryo extract, and 390 ng/ml of dexamethasone. One day before adding compounds, 2×10^5 cells were plated in 100 mm plates (for CUGBP1 western blot or RT-PCR alternative splicing assay) or 2×10^4 cells/well are seeded in 12-well plates containing 12 mm round glass coverslips (for FISH to detect RNA foci). […]
(§2) For Western blots, CUGBP1 was detected with the 3B1-3D11 monoclonal antibody (mAb) (SIGMA C5112) and GAPDH was detected with the 6C5 mAb (Millipore MAB374). The enhanced chemiluminescence signal (ECL) was acquired and quantified with the ChemiDoc™ MP imaging system (Bio-Rad). […] The alternative splicing of the hnRNPA2/B1 transcript was detected with the primers 5′-[…]-3′ (SEQ ID NO:7) and 5′-[…]-3′ (SEQ ID NO:8). PCR was performed with Taq using standard conditions but the number of amplification cycles was optimized to be in the quantitative range for each gene. […]

TNNT2 exon 5 = assay: RT-PCR alternative splicing assay, TNNT2 exon 5; conditions: DM1 myoblasts, 20 μM, 7 days; from 90% (FIG. 8C)
Experimental: as §1, §2

| SMILES | dose-response effect on splicing of MBNL1 mRNA (MBNL1 mRNA exon 7) | inclusion of SERCA1 exon 22, of total transcripts (SERCA1 exon 22) | inclusion of foetal TNNT2 exon 5, of total transcripts (TNNT2 exon 5) |
| --- | --- | --- | --- |
| CCCc1c(C(=O)N(Cc2ccccc2)Cc2cccs2)cnn1-c1ccccc1 [Compound 32] | clear dose-response effect |  |  |
| CCCN(CCC)S(=O)(=O)c1ccc(NS(=O)(=O)Cc2ccccc2)cc1 [Compound 15] |  | 17% | 76% |
